Measured values from ChEMBL document CHEMBL1126012 (J Med Chem, 1992).

Target: Sodium-dependent dopamine transporter (Rattus norvegicus, UniProt P23977)
Experiment: Inhibition of [3H]3-beta-(p-fluorophenyl)tropane-2beta-carboxylic acid methyl ester [3H]7a binding to Dopamine transporter of rat striatal membranes
Assay type: cell membranes, Membrane

Chain of Sodium-dependent dopamine transporter (P23977 whole entry): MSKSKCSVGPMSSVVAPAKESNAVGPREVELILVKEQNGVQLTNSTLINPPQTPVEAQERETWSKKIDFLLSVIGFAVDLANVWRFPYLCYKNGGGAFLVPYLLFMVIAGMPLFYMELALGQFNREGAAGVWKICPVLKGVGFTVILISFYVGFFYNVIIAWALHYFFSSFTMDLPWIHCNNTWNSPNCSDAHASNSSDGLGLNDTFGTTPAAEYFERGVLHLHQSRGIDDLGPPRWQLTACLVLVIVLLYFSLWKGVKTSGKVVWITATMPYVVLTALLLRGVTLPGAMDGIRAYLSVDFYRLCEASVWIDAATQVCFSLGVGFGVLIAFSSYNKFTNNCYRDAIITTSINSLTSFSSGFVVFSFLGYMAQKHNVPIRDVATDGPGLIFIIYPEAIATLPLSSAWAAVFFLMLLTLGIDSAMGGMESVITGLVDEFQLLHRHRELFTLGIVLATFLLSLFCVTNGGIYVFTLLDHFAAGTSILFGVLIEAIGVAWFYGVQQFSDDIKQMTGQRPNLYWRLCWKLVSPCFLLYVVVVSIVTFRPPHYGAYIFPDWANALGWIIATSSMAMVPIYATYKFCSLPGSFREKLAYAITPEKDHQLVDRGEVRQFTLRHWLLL

| Structure (SMILES) | IC50 [µM] |
| --- | --- |
| CN1[C@@H]2CC[C@H]1C[C@H](OC(=O)c1ccccc1)C2 | 21.2 |
| COC(=O)C1C(OC(=O)c2ccccc2)C[C@H]2CCC1N2C(C)=O (some centres undefined) | 3.37 |
| COC(=O)C1C2CC[C@H](CC1OC(=O)c1ccccc1)N2 (some centres undefined) | 0.303 |
| COC(=O)C1C(OC(=O)c2ccccc2)C[C@H]2CCC1N2Cc1ccccc1 (some centres undefined) | 0.668 |
| COC(=O)C1C(OC(=O)c2ccccc2)C[C@H]2CCC1[N+]2(C)C (some centres undefined) | 10.7 |
| CN1CC2CC1C[C@@H](OC(=O)c1ccccc1)C2 (stereo in doubt; 4c) | 19.8 |
| CN1CC2CC1C[C@@H](OC(=O)c1ccccc1)C2 (stereo in doubt; 4d) | 4.95 |
| CN1CC2CC(OC(=O)c3ccccc3)CC1C2 (stereo in doubt; 4d-(+)) | 2.94 |
| CN1CC2CC(OC(=O)c3ccccc3)CC1C2 (stereo in doubt; 4d-(-)) | 2.85 |
